Literature values in patent publication US20190275032A1 (Boehringer Ingelheim International GmbH, priority 2016, published 2019).
One block for each compound: values may come before it.

Assays:
[1] = tested on: patients with IPF
[2] = tested on: patients with IPF; conditions: both INPULSIS trials, nintedanib 150 mg twice daily versus placebo
[3] = tested on: PDGFR-α and-β; conditions: normal human lung fibroblasts in vitro
[4] = tested on: human lung fibroblasts
[5] = tested on: mouse models of IPF

SMILES: Cc1ccc(=O)n(-c2ccccc2)c1 [Pirfenidone, 5-methyl-1-phenyl-2(1H)-Pyridinone]
primary endpoint of change from baseline FVC % predicted ([1]; ASCEND Phase III trial): met the primary endpoint | primary FVC lung function endpoint ([1]; international Phase III CAPACITY program): demonstrated efficacy on the primary FVC lung function endpoint in only one of two confirmatory trials | decline of vital capacity ([1]; two local trials in Japan): reduced decline

exposure in patients with hepatic impairment (Child Pugh A, Child Pugh B): Exposure increased | elimination via biliary/faecal excretion (in vivo): > 90%
SMILES: COC(=O)c1ccc2c(c1)NC(=O)/C2=C(\Nc1ccc(N(C)C(=O)CN2CCN(C)CC2)cc1)c1ccccc1 [Nintedanib, 3-Z-[1-(4-(N-((4-methyl-piperazin-1-yl)-methylcarbonyl)-N-methyl-amino)-anilino)-1-phenyl-methylene]-6-methoxycarbonyl-2-indolinone]
reduction of the annual rate of decline in FVC (mL/year) [2]: approximately 50% | PDGFR-α and -β activation [3]: inhibit | PDGF- or FGF-2-stimulated migration of lung fibroblasts ([4]; fibroblasts from patients with IPF): attenuated | TGF-β-induced fibroblast to myofibroblast transformation ([4]; primary human lung fibroblasts from IPF patients): inhibited | total lung collagen ([5]; IPF mouse models): significant reductions | lymphocyte and neutrophil counts in the bronchoalveolar lavage fluid ([5]; two different mouse models of IPF): significant reductions
